Source: patent US10590101B2, “Benzo-N-hydroxy amide compounds having antitumor activity” (ITALFARMACO SPA, priority 2016, dated 2020)
Where two headings read alike, the source gives them in different places.

How the values were obtained:
[1] = system: Colon cancer stem cells (CSC) CSC2; assay: Cytotoxicity in vitro, colon cancer stem cells CSC2 (CellTiter-Glo); format: cell-based; conditions: 72 h incubation; read-out: CSC2 IC 50
Protocol: (§1) The cytotoxicity activity was evaluated as follows: • Pre-B leukemia cell line 697 was seeded at 2×10^5 c/well; • Colon carcinoma cell lines HCT116, HT29 and COLO2015 were seeded at 4×10^3, 4×10^3 and 10×10^3 c/well respectively; • Primary human kidney cells were seeded at 1.5×10^3 and 6.5×10^3 in two separate experiments; • Human PBMC were seeded at 5×10^5 c/well; • Colon cancer stem cells (CSC) were seeded at 3×10^3;
(§2) Testing compounds were added after 24 h and incubated for 72 h (48 h for 697 cell line). The concentrations of molecules ranged from 10000 nM to 1.5 nM (10000 to 1 nM for 697 cell line). The cytotoxic activity of compounds was evaluated using the CellTiter 96® Aqueous One Solution Cell Proliferation Assay (Promega) which measures the functionality of mitochondria according to manufacturer's instructions. For Colon cancer stem cells viability was determined with CellTiter-Glo Luminescent cell viability assay (Promega).
(§3) The activity of compounds at any dose is calculated as percentage of inhibition versus vehicle-treated control (=0). The IC50s are extrapolated from the inhibition dose/response curve using GraphPad Prism program.

[2] = system: Colon cancer stem cells (CSC) CSC3; assay: Cytotoxicity in vitro, colon cancer stem cells CSC3 (CellTiter-Glo); format: cell-based; conditions: 72 h incubation; read-out: CSC3 IC 50
Protocol: as §1, §2, §3

[3] = system: COLO205 colon cancer cell line; assay: Cytotoxicity in vitro, COLO205 (CellTiter 96); format: cell-based; conditions: Homo sapiens, COLO 205; 72 h incubation; read-out: COLO205 IC 50
Protocol: as §1, §2
(§4) The compound cytotoxicity was confirmed by further assays on two other colon cancer cell lines HT29 (ATCC HTB38) and Colo205 (ATCC CCL222) and on colon cancer stem cells (CSCs) (see table 2 and 3). It is worth noting that cytotoxic activity toward human primary kidney cells and peripheral blood mononuclear cells (PBMC) isolated from healthy donors was lower compared to tumor cells cytotoxicity (see table 4).
as §3

Human PBMC = assay: Cytotoxicity in vitro, PBMC from healthy donors (CellTiter 96); format: cell-based
Protocol: as §1, §2, §4, §3

HCT116 xenograft = assay: Antitumor activity in vivo, sc xenograft model of colon cancer; parameters: species or system CD1 nude female mice; conditions: ip
Protocol: Female CD-1 nude mice, 5 weeks of age and 20 to 22 g of weight, were housed in the animal house of the Italfarmaco Research Centre. Mice were maintained in micro isolator cages and supplied with sterile food and water under standard conditions.
Xenografts were generated by sc injection of 7×10^6 HCT116 cells in the right flank of the animals.
Tumor sizes were determined by caliper measurements and tumor volumes were calculated according to the following formula: Tumor volume (mm^3)=(w2×1)/2 where “w” is the width and “l” is the length of the carcinoma in mm.
Tumor growth was followed by volume measurement three times a week.
Tumor mass reached a measurable size three weeks after transplantation, at this time, treatments began.
Two reference compounds were also used in the experiment. The cinnamic hydroxamic acid panobinostat and 5-FU. The compounds were administered at the MTD according to previous experiments or as described in the literature.

[4] = system: HT29 colon cancer cell line; assay: Cytotoxicity in vitro, HT29 (CellTiter 96); format: cell-based; conditions: Homo sapiens, HT-29; 72 h incubation; read-out: HT29 IC 50
Protocol: as §1, §2, §4, §3

[5] = system: Colon cancer stem cells (CSC) CSC1; assay: Cytotoxicity in vitro, colon cancer stem cells CSC1 (CellTiter-Glo); format: cell-based; conditions: 72 h incubation
Protocol: as §1, §2, §3

HCT116 cells = assay: Cytotoxicity in vitro, HCT116 (CellTiter 96 Aqueous One Solution); format: cell-based, human; conditions: for IC50: Homo sapiens, HCT-116, 72 h incubation
Excerpt: The compounds of the present invention are small molecules of formula (I), characterised by the presence of a metal chelating moiety, the benzohydroxamate, an α-aminoacidic N-acylated central core and an α,β-unsaturation at the acyl-moiety. This particular structural feature seems responsible for the high inhibitory activity on cancer stem cell lines and on HCT116 cells (ATCC CCL-247), a human colorectal carcinoma cell line widely used in cancer biology both in vitro and in vivo (Botchkina Cancer Genom Proteom 6, 19-30, 2009; Yeung PNAS 107, 3722-3727, 2010).
as §1, §2, §3

[6] = system: Pre-B leukemia cell line 697; assay: Primary cytotoxicity screening, 697 cell line (CellTiter 96); format: cell-based; conditions: Table 1; 48 h incubation; read-out: CyTox697
Protocol: as §1, §2, §3

[7] = system: Primary human kidney cells; assay: Cytotoxicity in vitro, primary renal cells (CellTiter 96); format: cell-based
Protocol: as §1, §2, §4, §3

[8] = Force degradation test (chemical stability); format: physicochemical
[9] = PBMC 1, 72 h incubation, read-out: PBMC 1 IC 50
[10] = PBMC 2, 72 h incubation, read-out: PBMC 2 IC 50
[11] = Table 2, read-out: HCT-116 IC 50
[12] = Renal.ep1, 72 h incubation, read-out: Renal.ep1 IC 50
[13] = Renal.ep2, 72 h incubation, read-out: Renal.ep2 IC 50

| SMILES | IC50 [6] [µM] | IC50 ([5]; Table 1, read-out: CSC1) [µM] | IC50 (HCT116 cells; Table 1, read-out: HCT116) [µM] | further results |
| --- | --- | --- | --- | --- |
| COc1ccc(C[C@H](NC(=O)/C=C/c2ccccc2)C(=O)Nc2ccc(C(=O)NO)cc2)cc1 [Compound 2D, (2S)—N-[4-(hydroxycarbamoyl)phenyl]-3-(4-methoxyphenyl)-2-[[(E)-3-phenylprop-2-enoyl]amino]propanamide] | – | – | – | IC50 [1]: 0.1 µM; IC50 [2]: 0.07 µM; IC50 [3]: 0.073 µM; IC50 (Human PBMC; [9]): 0.089 µM; IC50 (Human PBMC; [10]): 0.042 µM; % inhib tumor vs CTRL after 44 days of treatment (HCT116 xenograft; 1 mg/kg): 33%; IC50 [4]: 0.061 µM; IC50 ([5]; Table 3, read-out: CSC1 IC 50): 0.05 µM; IC50 (HCT116 cells; [11]): 0.014 µM |
| COc1ccc(C[C@H](NC(=O)Cc2ccc3c(c2)OCO3)C(=O)Nc2ccc(C(=O)NO)cc2)cc1 | 0.168 | 0.28 | 0.554 | – |
| Cc1[nH]c2ccccc2c1CCNCc1ccc(/C=C/C(=O)NO)cc1 [Panobinostat, panobinostat, reference compound] | – | – | – | % inhib tumor vs CTRL after 44 days of treatment (HCT116 xenograft; 1 mg/kg): 34% |
| COc1ccc(C[C@H](NC(=O)CCc2ccccc2)C(=O)Nc2ccc(C(=O)NO)cc2)cc1 | 0.053 | 0.136 | 0.431 | – |
| O=C(NO)c1ccc(NC(=O)[C@H](Cc2ccccc2)NC(=O)c2ccccc2)cc1 | 0.105 | 0.096 | 0.184 | – |
| O=C(NO)c1ccc(NC(=O)[C@H](Cc2ccccc2)NC(=O)c2ccc3c(c2)OCO3)cc1 | 0.018 | – | 0.079 | – |
| O=C(COc1ccccc1)N[C@@H](Cc1ccccc1)C(=O)Nc1ccc(C(=O)NO)cc1 | 0.059 | 0.424 | 0.466 | – |
| O=c1[nH]cc(F)c(=O)[nH]1 [Compound 5-FU, 5-FU, reference compound] | – | – | – | % inhib tumor vs CTRL after 44 days of treatment (HCT116 xenograft; 10 mg/kg): 36%; % inhib tumor vs CTRL after 44 days of treatment (HCT116 xenograft; 70 mg/kg, once a week): 61% |
| COc1ccc(C[C@H](NC(=O)/C=C/c2ccc3c(c2)OCO3)C(=O)Nc2ccc(C(=O)NO)cc2)cc1 [drawing 46] | 0.003 | 0.192 | 0.018 | – |
| COc1ccc(C[C@H](NC(=O)Cc2ccccc2)C(=O)Nc2ccc(C(=O)NO)cc2)cc1 | 0.072 | 0.16 | 0.316 | – |
| COc1ccc(C[C@H](NC(=O)c2ccccc2)C(=O)Nc2ccc(C(=O)NO)cc2)cc1 | 0.054 | 0.048 | 0.076 | – |
| O=C(Cc1ccccc1)N[C@@H](Cc1ccccc1)C(=O)Nc1ccc(C(=O)NO)cc1 | 0.09 | 0.192 | 0.237 | – |
| O=C(/C=C/c1ccccc1)N[C@@H](Cc1ccccc1)C(=O)Nc1ccc(C(=O)NO)cc1 [Compound 5D, (2S)—N-[4-(hydroxycarbamoyl)phenyl]-3-phenyl-2-[[(E)-3-phenyl-2-enoyl]amino]propanamide] | – | – | – | IC50 [1]: 0.102 µM; IC50 [2]: 0.23 µM; IC50 [3]: 0.221 µM; IC50 (Human PBMC; [9]): 0.147 µM; IC50 (Human PBMC; [10]): 0.595 µM; % inhib tumor vs CTRL after 44 days of treatment (HCT116 xenograft; 5 mg/kg): 46%; IC50 [4]: 0.197 µM; IC50 ([5]; Table 3, read-out: CSC1 IC 50): 0.026 µM; IC50 (HCT116 cells; [11]): 0.014 µM; IC50 [7, 12]: 1.06 µM; IC50 [7, 13]: 0.511 µM |
| COc1ccc(C[C@H](NC(=O)/C=C/c2ccccc2)C(=O)Nc2ccc(C(=O)NO)cc2)cc1 [drawing 50] | 0.022 | 0.04 | 0.013 | – |
| COc1ccc(C[C@H](NC(=O)COc2ccccc2)C(=O)Nc2ccc(C(=O)NO)cc2)cc1 | 0.044 | – | 0.194 | – |
| O=C(Cc1ccc2c(c1)OCO2)N[C@@H](Cc1ccccc1)C(=O)Nc1ccc(C(=O)NO)cc1 | 0.127 | 0.208 | 1.07 | – |
| O=C(CCc1ccccc1)N[C@@H](Cc1ccccc1)C(=O)Nc1ccc(C(=O)NO)cc1 | 0.77 | 0.332 | 0.806 | – |
| O=C(/C=C/c1ccc2c(c1)OCO2)N[C@@H](Cc1ccccc1)C(=O)Nc1ccc(C(=O)NO)cc1 [drawing 55] | 0.085 | 0.037 | 0.011 | – |
| O=C(/C=C\c1ccccc1)N[C@@H](Cc1ccccc1)C(=O)Nc1ccc(C(=O)NO)cc1 [Compound 5DZ, (S,Z)—N-hydroxy-4-(3-phenyl-2-(3-phenylacrylamido)propanamido)benzamide] | – | – | – | stability at high temperatures ([8]; 15 days at 80° C.): little less stable; stability at low pH ([8]; 15 days at pH 2): definitely less stable; chemical stability compared with the trans ([8]; cis-form vs trans): chemically less stable; potency on HCT116 cells compared with the trans-form (HCT116 cells; cis-form vs trans-form): less potent |
| COc1ccc(C[C@H](NC(=O)CCc2ccc3c(c2)OCO3)C(=O)Nc2ccc(C(=O)NO)cc2)cc1 | 0.496 | 0.4 | 0.702 | – |
| O=C(/C=C/c1ccc2c(c1)OCO2)N[C@@H](Cc1ccccc1)C(=O)Nc1ccc(C(=O)NO)cc1 [Compound 4D, (2S)-2-[[(E)-3-(1,3-benzodioxol-5-yl)prop-2-enoyl]amino]-N-[4-(hydroxycarbamoyl)phenyl]-3-phenyl-propanamide] | – | – | – | IC50 [1]: 0.102 µM; IC50 [2]: 0.091 µM; IC50 [3]: 0.201 µM; IC50 (Human PBMC; [9]): 0.359 µM; IC50 (Human PBMC; [10]): 0.601 µM; % inhib tumor vs CTRL after 44 days of treatment (HCT116 xenograft; 5 mg/kg): 54%; % inhib tumor vs CTRL after 44 days of treatment (HCT116 xenograft; 10 mg/kg): 39%; IC50 [4]: 0.215 µM; IC50 ([5]; Table 3, read-out: CSC1 IC 50): 0.013 µM; IC50 (HCT116 cells; [11]): 0.019 µM; IC50 [7, 12]: 0.778 µM |
| O=C(/C=C/c1ccccc1)N[C@@H](Cc1ccccc1)C(=O)Nc1ccc(C(=O)NO)cc1 [drawing 59] | 0.045 | 0.073 | 0.01 | – |
| O=C(CCc1ccc2c(c1)OCO2)N[C@@H](Cc1ccccc1)C(=O)Nc1ccc(C(=O)NO)cc1 | 0.203 | 0.336 | 0.9 | – |
| COc1ccc(C[C@H](NC(=O)/C=C/c2ccc3c(c2)OCO3)C(=O)Nc2ccc(C(=O)NO)cc2)cc1 [Compound 1D, (2S)-2-[[(E)-3-(1,3-benzodioxol-5-yl)prop-2-enoyl]amino]-N-[4-(hydroxycarbamoyl)phenyl]-3-(4-methoxyphenyl)propanamide] | – | – | – | IC50 [1]: 0.114 µM; IC50 [2]: 0.085 µM; IC50 [3]: 0.146 µM; IC50 (Human PBMC; [9]): 0.08 µM; IC50 (Human PBMC; [10]): 0.152 µM; % inhib tumor vs CTRL after 44 days of treatment (HCT116 xenograft; 0.5 mg/kg): 23%; % inhib tumor vs CTRL after 44 days of treatment (HCT116 xenograft; 1 mg/kg): 22%; IC50 [4]: 0.157 µM; IC50 ([5]; Table 3, read-out: CSC1 IC 50): 0.019 µM; IC50 (HCT116 cells; [11]): 0.018 µM; IC50 [7, 12]: 0.462 µM; IC50 [7, 13]: 0.321 µM |
| COc1ccc(C[C@H](NC(=O)c2ccc3c(c2)OCO3)C(=O)Nc2ccc(C(=O)NO)cc2)cc1 | 0.021 | 0.024 | 0.024 | – |
